Data from patent US20260000656A1, “ANTIFUNGAL AGENTS WITH ENHANCED ACTIVITY IN ACIDIC PH” (Scynexis, Inc., priority 2017, published 2026).
Converted amounts (≈) assume the structure as drawn. Where two headings read alike, the source gives them in different places.

Tested on: C. albicans isolates
Experiment: Broth microdilution susceptibility (CLSI M27-A3) at different medium pH
Format: cell-based, Candida albicans
Settings: for MIC50: read-out: MIC50
Procedure: Ten strains each of C. glabrata and C. albicans vaginal isolates were tested. The strains were obtained from recent clinical trial patients with vulvovaginal candidiasis (VVC) prior to treatment. Candida strains were obtained from the Mycology Reference Library (MRL) at Case Western Reserve University School of Medicine, Ohio, United States.
Susceptibility testing was performed using a broth microdilution method, according to CLSI M27-A3 guidelines (CLSI. 2008. Reference Method for Broth Dilution Antifungal Susceptibility Testing of Yeasts; Approved Standard—Third Edition. Clinical and Laboratory Standards Institute, CLSI document M27-A3). Antifungals and concentrations tested were SCY-078 and micafungin (both at concentrations within the range of 0.015 to 8 μg/ml) and fluconazole (at concentrations within the range of 0.125 to 64 μg/ml). A 0.1-ml C. albicans and C. glabrata inoculum of 0.5-2.5×10^3 blastospores/ml in RPMI 1640 medium was added to each microdilution well. ATCC strains of Candida parapsilosis and Candida krusei QC isolates were also included concurrently to ensure quality control. Antifungal susceptibility testing was carried out for each isolate in RPMI 1640 at pH 7 (to mimic RPMI medium used in testing the susceptibility of yeast by the CLSI M-27A3 document), pH 5.7, and pH 4.5 (to mimic the pH of the vaginal cavity) by adjusting the pH of the media using NaOH or HCl. […] Agents Chemother., 43: 1383-1386 (1999).
[…] SCY-078 powder was manufactured by Avista, Laboratories, NC. Micafungin and fluconazole were sourced from LGM Pharma.

[1] = 50% inhibition, pH 4.5, 24 h, 10 vaginal isolates

MIC90 [1]: < 0.016 µg/mL
MIC range [1]: <0.016 to 0.031 µg/mL
MIC range (50% inhibition, pH 5.72, 24 h, 10 vaginal isolates): 0.125 to .25 µg/mL
MIC range (50% inhibition, pH 7.0, 24 h, 10 vaginal isolates): 0.125 to 0.5 µg/mL
MIC range (100% inhibition, pH 4.5, 24 hours, 10 isolates): <0.016 to 4 µg/mL
MIC range (100% inhibition, pH 5.72, 24 hours, 10 isolates): 0.25 to 2 µg/mL
MIC range (100% inhibition, pH 7.0, 24 hours, 10 isolates): 0.25 to 4 µg/mL
reduction in MIC50 at pH 4.5 compared to the MIC50 at pH 7.0 (C. albicans isolates): 16 fold
MIC50 (Candida albicans, 24 h, pH 4.5, 50% inhibition, pH 4.5, 24 h, 10 vaginal isolates): < 0.016 µg/mL
MIC90 (Candida albicans, 24 h, pH 4.5, 50% inhibition, pH 4.5, 24 h, 10 vaginal isolates, read-out: MIC90): < 0.016 µg/mL
MIC50 (Candida albicans, 24 h, pH 4.5, 100% inhibition, pH 4.5, 24 hours, 10 isolates): 0.031 µg/mL (≈ 0.0425 µM)
MIC90 (Candida albicans, 24 h, pH 4.5, 100% inhibition, pH 4.5, 24 hours, 10 isolates, read-out: MIC90): 0.031 µg/mL (≈ 0.0425 µM)
MIC (Candida albicans, 24 h, pH 4.5, C. albicans MRL 34366, pH 4.5, 24 hours, read-out: MIC (50% inhibition)): 0.031 µg/mL (≈ 0.0425 µM)
MIC (Candida albicans, 24 h, pH 4.5, C. albicans MRL 34366, pH 4.5, 24 hours, read-out: MIC (100% inhibition)): 0.031 µg/mL (≈ 0.0425 µM)
MIC (Candida albicans, 24 h, pH 4.5, C. albicans MRL 34367, pH 4.5, 24 hours, read-out: MIC (50% inhibition)): < 0.016 µg/mL
MIC (Candida albicans, 24 h, pH 4.5, C. albicans MRL 34367, pH 4.5, 24 hours, read-out: MIC (100% inhibition)): 0.031 µg/mL (≈ 0.0425 µM)
MIC (Candida albicans, 24 h, pH 4.5, C. albicans MRL 34372, pH 4.5, 24 hours, read-out: MIC (50% inhibition)): < 0.016 µg/mL
MIC (Candida albicans, 24 h, pH 4.5, C. albicans MRL 34372, pH 4.5, 24 hours, read-out: MIC (100% inhibition)): < 0.016 µg/mL
MIC (Candida albicans, 24 h, pH 4.5, C. albicans MRL 34373, pH 4.5, 24 hours, read-out: MIC (50% inhibition)): < 0.016 µg/mL
MIC (Candida albicans, 24 h, pH 4.5, C. albicans MRL 34373, pH 4.5, 24 hours, read-out: MIC (100% inhibition)): < 0.016 µg/mL
MIC (Candida albicans, 24 h, pH 4.5, C. albicans MRL 34374, pH 4.5, 24 hours, read-out: MIC (50% inhibition)): < 0.016 µg/mL
MIC (Candida albicans, 24 h, pH 4.5, C. albicans MRL 34374, pH 4.5, 24 hours, read-out: MIC (100% inhibition)): < 0.016 µg/mL
MIC (Candida albicans, 24 h, pH 4.5, C. albicans MRL 34385, pH 4.5, 24 hours, read-out: MIC (50% inhibition)): < 0.016 µg/mL
MIC (Candida albicans, 24 h, pH 4.5, C. albicans MRL 34385, pH 4.5, 24 hours, read-out: MIC (100% inhibition)): 0.031 µg/mL (≈ 0.0425 µM)
MIC (Candida albicans, 24 h, pH 4.5, C. albicans MRL 34389, pH 4.5, 24 hours, read-out: MIC (50% inhibition)): < 0.016 µg/mL
MIC (Candida albicans, 24 h, pH 4.5, C. albicans MRL 34389, pH 4.5, 24 hours, read-out: MIC (100% inhibition)): 0.031 µg/mL (≈ 0.0425 µM)
MIC (Candida albicans, 24 h, pH 4.5, C. albicans MRL 34399, pH 4.5, 24 hours, read-out: MIC (50% inhibition)): < 0.016 µg/mL
MIC (Candida albicans, 24 h, pH 4.5, C. albicans MRL 34399, pH 4.5, 24 hours, read-out: MIC (100% inhibition)): 0.031 µg/mL (≈ 0.0425 µM)
MIC (Candida albicans, 24 h, pH 4.5, C. albicans MRL 34408, pH 4.5, 24 hours, read-out: MIC (50% inhibition)): < 0.016 µg/mL
MIC (Candida albicans, 24 h, pH 4.5, C. albicans MRL 34408, pH 4.5, 24 hours, read-out: MIC (100% inhibition)): 4 µg/mL (≈ 5.48 µM)
MIC (Candida albicans, 24 h, pH 4.5, C. albicans MRL 34449, pH 4.5, 24 hours, read-out: MIC (50% inhibition)): < 0.016 µg/mL
MIC (Candida albicans, 24 h, pH 4.5, C. albicans MRL 34449, pH 4.5, 24 hours, read-out: MIC (100% inhibition)): 0.031 µg/mL (≈ 0.0425 µM)
MIC50 (Candida albicans, 24 h, pH 5.72, 50% inhibition, pH 5.72, 24 h, 10 vaginal isolates): 0.25 µg/mL (≈ 0.342 µM)
MIC90 (Candida albicans, 24 h, pH 5.72, 50% inhibition, pH 5.72, 24 h, 10 vaginal isolates, read-out: MIC90): 0.25 µg/mL (≈ 0.342 µM)
MIC50 (Candida albicans, 24 h, pH 5.72, 100% inhibition, pH 5.72, 24 hours, 10 isolates): 0.25 µg/mL (≈ 0.342 µM)
MIC90 (Candida albicans, 24 h, pH 5.72, 100% inhibition, pH 5.72, 24 hours, 10 isolates, read-out: MIC90): 0.5 µg/mL (≈ 0.685 µM)
MIC (Candida albicans, 24 h, pH 5.72, C. albicans MRL 34366, pH 5.72, 24 hours, read-out: MIC (50% inhibition)): 0.25 µg/mL (≈ 0.342 µM)
MIC (Candida albicans, 24 h, pH 5.72, C. albicans MRL 34366, pH 5.72, 24 hours, read-out: MIC (100% inhibition)): 0.5 µg/mL (≈ 0.685 µM)
MIC (Candida albicans, 24 h, pH 5.72, C. albicans MRL 34367, pH 5.72, 24 hours, read-out: MIC (50% inhibition)): 0.125 µg/mL (≈ 0.171 µM)
MIC (Candida albicans, 24 h, pH 5.72, C. albicans MRL 34367, pH 5.72, 24 hours, read-out: MIC (100% inhibition)): 0.5 µg/mL (≈ 0.685 µM)
Compound: CC(C)[C@@H](C)[C@@]1(C)CC[C@]2(C)[C@H]3CC[C@@H]4[C@@]5(COC[C@]4(C)[C@@H](OC[C@](C)(N)C(C)(C)C)[C@H](n4ncnc4-c4ccncc4)C5)C3=CC[C@@]2(C)[C@@H]1C(=O)O [SCY-078]
